In article PMC3025922 (BMC Biology, 2010):
Values joined by “and” are separate entries in the source; they are usually repeats but may differ in a detail not shown here. Identical values can stand only once. Like-named read-outs stand apart in the source and are kept apart here.

Key:
[1] = test system: p27 protein levels in DU145 cells; experiment: Immunoblot quantification of p27, DU145; assay type: cell-based, human
Experimental: (§1) Total cell lysate from cells treated with vehicle (DMSO) or compounds were obtained by incubating cells in lysis buffer (25 mM Tris-HCl pH 7.4, 150 mM NaCl, 0.5% Triton X-100, protease inhibitors) for 15 min at 4°C. The supernatant was collected by centrifugation and the amount of protein was determined with a Bio-Rad protein assay (Bio-Rad) using BSA as standard. Equal amounts of protein were subjected to SDS-PAGE (4%-20% gels, Invitrogen) and transferred to PVDF membranes. The membranes were blocked with TBST (50 mM Tris-HCl pH 7.5, 150 mM NaCl, 0.05% Tween-20) containing 5% non-fat dry milk or bovine serum albumin (BSA) for 1 h at room temperature, followed by incubation in primary antibodies 4°C overnight. Membranes were washed and incubated with secondary antibodies conjugated to HRP (Jackson ImmunoResearch Laboratories) for 1 h at room temperature. Signals were visualized using the ECL Western Blotting Substrate (Pierce Biotechnology, IL, USA) according to the manufacturer's instructions. Membranes were stripped using Restore™ Western Blot Stripping Buffer (Pierce Biotechnology). Films were scanned and quantification of the bands was performed using Image J software http://rsbweb.nih.gov/ij/.

[2] = test system: p27 stability in LNCaP-S14 cells; experiment: Protein half-life by cycloheximide chase; assay type: cell-based, human; conditions: LNCaP-S14, 40 μM SMIPs 18 h, then cycloheximide 100 μg/mL; DMSO ~ 1.29 h
Experimental: LNCaP-S14 cells were treated with SMIPs (40 μM) for 18 h followed by the addition of 100 μg/mL cycloheximide (CHX). Cell extracts were obtained as described above at different times after CHX addition. Protein lysate was subjected to SDS-PAGE and immunoblotting for p27, p21 and SKP2. Tubulin was used as loading control. Protein half-lives were calculated using a web based calculator http://www.1728.com/halflife.htm.

[3] = test system: p21 protein levels in DU145 cells; experiment: Immunoblot quantification of p21, DU145; assay type: cell-based, human
Experimental: as §1

[4] = test system: p21 protein levels in PC3 cells; experiment: Immunoblot quantification of p21, PC3; assay type: cell-based, human
Experimental: as §1

LNCaP-WT cells = experiment: MTT cytotoxicity assay, LNCaP-WT; conditions: Homo sapiens, read-out: IC50 (MTT cytotoxicity)
Experimental: (§3) LNCaP-S14 (10,000 cells), PC3, DU145 or IMR90 cells (5000 cells) were seeded in 96-well plates and treated with increasing concentrations of the respective SMIPs for 72 h. Cell viability was assessed using the MTT cell proliferation assay (ATCC®, Middlesex, UK) according to the manufacturer's protocol. IC50 was calculated using the BioDataFit 1.02 software http://www.changbioscience.com/stat/ec50.html.

[5] = test system: p21 protein levels in LNCaP-S14 cells; experiment: Immunoblot quantification of p21, LNCaP-S14; assay type: cell-based, human
Experimental: as §1

IMR90 cells = experiment: Cell cycle analysis by flow cytometry, IMR90; assay type: cell-based, human
Experimental: (§2) Cells were exposed to SMIPs (40 μM) for 24 h and 48 h. Cells were trypsinized, washed with PBS and suspended in 600 μL PBS. Cells were fixed by adding 1.4 mL cold absolute ethanol and kept at -20°C for at least 12 h. After washing once with PBS, the cells were resuspended in 250 μL PBS containing 2.5 μg RNAse A and incubated for 45 min at room temperature. Staining was done by adding 40 μg/mL of propidium iodine followed by incubation for 15 min at room temperature. DNA-bound fluorescence was read at 564 to 606 nm using FACSort and FACSCanto flow cytometers (BD Biosciences) at the Flow Cytometry Facility of the Sanford-Burnham Medical Research Institute. Distribution of cells in the different cell cycle phase was determined with ModFit LT 3.2.1 or FlowJo 8.6 software. Aggregates were excluded from the analysis manually using pulse shape or identified by automated modelling in ModFit LT.

[6] = test system: p27 protein levels in IMR90 cells; experiment: Immunoblot quantification of p27, IMR90; assay type: cell-based, human
Experimental: as §1

LNCaP-S14 cells = experiment: Cell cycle distribution in LNCaP-S14 transfected with siRNAs for p27 and p21; assay type: cell-based, human
Experimental: as §2
LNCaP-S14 cells were seeded in 6 cm dishes or six-well-plates coated with poly-lysine the day before transfection. 10-20 nM of siRNA was transfected using DharmaFECT 3 (Thermo Scientific) according to the manufacturer's instructions. Briefly, siRNAs were dissolved in siRNA suspension buffer (Quiagen) at 20 μM, heated to 90°C for 1 min and incubated at 37°C for 1 h. siRNAs were added to the DharmaFECT 3 reagent diluted in Optimem media (1:100) and incubated for 20 min at room temperature. The mix was added to the cells for 24 h. Treatment with SMIPs (40 μM) or vehicle was carried on for another 24 h. Cells were obtained for FACS or lysed for immunoblotting analysis as described above. Untransfected cells as well as cells transfected with non-specific siRNA were used as controls. Silencer® Negative Control siRNA No.1 from Ambion (Applied Biosciences, CA, USA) was used as non-specific control siRNA. siRNA target sequences for p27 and p21 synthesized by IDT (Integrated DNA Technologies Inc, Iowa, USA) were as follows; p27 siRNA: […], and p21 siRNA: […] [56].

[7] = test system: p27 protein levels in LNCaP-S14 cells; experiment: Immunoblot quantification of p27, LNCaP-S14; assay type: cell-based, human
Experimental: as §1

PC3 cells [8] = experiment: MTT cytotoxicity assay, PC3; conditions: Homo sapiens, read-out: IC50 (MTT cytotoxicity)
Experimental: as §3

DU145 cells [9] = experiment: MTT cytotoxicity assay, DU145; conditions: Homo sapiens, read-out: IC50 (MTT cytotoxicity)
Experimental: as §3

DU145 cells [10] = experiment: Cell cycle analysis by flow cytometry, DU145; assay type: cell-based, human
Experimental: as §2

[11] = MTT cytotoxicity assay, IMR90; assay type: cell-based; conditions: human, IMR90 normal fibroblasts
Experimental: as §3

[12] = test system: p27 protein levels in HeLa cells; experiment: Immunoblot quantification of p27, HeLa; assay type: cell-based, human
Experimental: as §1

[13] = test system: p21 protein levels in LNCaP cells; experiment: Immunoblot quantification of p21, LNCaP; assay type: cell-based, human
Experimental: as §1

[14] = test system: p27 protein levels in PC3 cells; experiment: Immunoblot quantification of p27, PC3; assay type: cell-based, human
Experimental: as §1

PC3 cells [15] = experiment: Cell cycle analysis by flow cytometry, PC3; assay type: cell-based, human
Experimental: as §2

[16] = test system: p21 protein levels in IMR90 cells; experiment: Immunoblot quantification of p21, IMR90; assay type: cell-based, human
Experimental: as §1

CC(C)(C)c1cc2cc(NC(=O)c3cccs3)ccc2[nH]1 [SMIP001]
p27 protein level (immunoblot, DMSO = 1.0) [1]: 1.1 ± 0.2
p27 half-life [2]: No effect
p21 protein level (immunoblot, DMSO = 1.0) [3]: 1.1 ± 0.3
p21 protein level (immunoblot, DMSO = 1.0) [4]: 1.1 ± 0.5
IC50 (LNCaP-WT cells; 72 h): 47.1 µM
IC50 (LNCaP-WT cells; 96 h): 32.7 µM
p21 protein level (immunoblot, DMSO = 1.0) [5]: 2.0 ± 0.6
Cell cycle distribution G1 (IMR90 cells): 68.4 and 77.0
Cell cycle distribution G2 (IMR90 cells): 15.3 and 14.1
Cell cycle distribution S (IMR90 cells): 16.2 and 8.9
p27 protein level (immunoblot, DMSO = 1.0) [6]: 1.0 ± 0.0
% G1 (LNCaP-S14 cells): 71.86% and 75.76% and 75.13% and 72.22%
% G2 (LNCaP-S14 cells): 21.07% and 14.54% and 18.37% and 16.74%
% S (LNCaP-S14 cells): 7.07% and 9.70% and 6.50% and 11.04%
p27 protein level (immunoblot, DMSO = 1.0) [7]: 1.9 ± 0.5
IC50 (PC3 cells [8]; PC-3, 72 h): ~80 µM
IC50 (PC3 cells [8]; PC-3, 96 h): 80 µM
IC50 (DU145 cells [9]; DU-145, 72 h): ~40 µM
IC50 (DU145 cells [9]; DU-145, 96 h): 32.5 µM
Cell cycle distribution G1 (DU145 cells [10]): 65.6 and 71.1
Cell cycle distribution G2 (DU145 cells [10]): 9.7 and 13.6
Cell cycle distribution S (DU145 cells [10]): 23.9 and 13.4
IC50 at 72 h ([11]; IMR90, 0.01 - 40 μM): > 20 µM
IC50 at 72 h ([11]; IMR90, 0.01 - 80 μM): 40 to 80 µM
IC50 at 96 h ([11]; IMR90, 0.01 - 80 μM, 96 h): 40 to 80 µM
p27 protein level (immunoblot, DMSO = 1.0) [12]: 1.1 ± 0.1
p21 protein level (immunoblot, DMSO = 1.0) [13]: 1.7 ± 0.6
p27 protein level (immunoblot, DMSO = 1.0) [14]: 1.3 ± 0.6
Cell cycle distribution G1 (PC3 cells [15]): 48.6 and 57.5
Cell cycle distribution G2 (PC3 cells [15]): 29.7 and 27.8
Cell cycle distribution S (PC3 cells [15]): 20.4 and 13.6
p21 protein level (immunoblot, DMSO = 1.0) [16]: 1.1 ± 0.0
